We go through one compound from US8987266B2, “EGFR mutations” (Genentech, Inc., priority 2004, dated 2015).

The structures appear in SMILES notation.

For one test, the system named is HN5 xenografts. As to conditions: nude mice; cited from earlier work.
Another test has as its system H1975 tumor cell line. The test can be described thus: treatment of H1975 tumor cell line. The note with it: H1975, EGFR T790M in combination with L858R. The class given is cell-based.
A further test deals with A431 xenografts. The note with it: nude mice; cited from earlier work.
For test [1] the following is noted: combined with paclitaxel, cisplatin, gemcitabine, and doxorubicin; cited from earlier work.

In the case of `C#Cc1cccc(Nc2ncnc3cc(OCCOC)c(OCCOC)cc23)c1` [erlotinib], the “growth inhibition of HN5 xenografts” value in the test with HN5 xenografts is listed as “marked growth inhibition”. The “response of tumor cell line to treatment” value in the test with H1975 tumor cell line is “exhibited resistance”. Further, the “growth inhibition of A431 xenografts” value in the test on A431 xenografts was “marked growth inhibition”. Also, the “interaction with chemotherapy agents” value in test [1] was “additive interaction”.
